Laboratory results published in patent publication US20060100180A1, “Composition containing an androgenous 11b-halogen steroid and a progestational hormone, and male contraceptive based on said composition” (priority 2002, published 2006).

Experiments:
[1] = cited from earlier work
[2] = effectiveness compared with testosterone; settings: more effective than testosterone

Compound | biological effectiveness compared with testosterone [1] | effectiveness relative to testosterone [2]
C[C@@H]1CC2=CC(=O)CC[C@@H]2[C@H]2CC[C@]3(C)[C@@H](O)CC[C@H]3[C@@H]21 [7α-methyl-19-nortestosterone] | higher biological effectiveness than testosterone | –
C[C@@H]1CC2=CC(=O)CC[C@@H]2[C@@H]2[C@@H]1[C@@H]1CC[C@H](O)[C@@]1(C)C[C@@H]2F [Compound A, 11β-fluoro-17β-hydroxy-7α-methyl-estr-4-en-3-one] | – | about 10 ×
